Converted amounts (≈) assume the structure as drawn. “Also recorded” adds a separate entry of the source. Read-outs that look alike come from different tables or passages of the source. Bridge positions count the residues as written; N and C are the ends.
Key:
C. albicans [1] = settings: cited from earlier work
C. albicans SC5314 [2] = settings: strain SC5314, cited from earlier work
C. albicans strain 53264 = settings: cited from earlier work
C. albicans strain 43001 = settings: cited from earlier work
C. albicans SC5314 [3] = experiment: In vivo model of disseminated candidiasis in BALB/c mice (survival, body weight, renal fungal burden); settings: for survival compared to saline controls, P (log-rank analysis): observed 26 days p.i.; for survival compared to saline controls, P (log-rank analysis) / survival efficacy, comparison in words: FIG. 8; for renal fungal burden reduced to a greater extent than fluconazole, P (Fisher's LSD test): peptide 0.1 or 0.25 mg/kg versus fluconazole 5 mg/kg; for survival efficacy relative to MTD1280: candidemia model, survival as metric, 0.1 mg/kg versus MTD1280 0.25 mg/kg, FIGS. 10 to 13; for survival by end point analysis versus fluconazole: χ^2 analysis at day 30 p.i.
Method: Mice were infected i.v. at T=0 with 3×105 blastospores of C. albicans SC5314.
Mice were infected i.v. at T=0 with 3×10^5 blastospores of C. albicans SC5314. At T=24 h, mice were treated i.p. daily for 7 d w.
Suitable cyclic tetradecapeptides can be identified by screening against a murine model for disseminated candidiasis. C. albicans SC5314 obtained from American Type Culture Collection can be used as a suitable reference strain. […] Typical antifungal drugs include caspofungin and fluconazole. Cyclic tetradecapeptides to be tested and antifungal drugs can be suspended or dissolved in water or isotonic saline and administered by one or more of intravenous, subcutaneous, intramuscular, and/or intraperitoneal injection.
In vitro activity of synthetic cyclic tetradecapeptides and antifungal compounds can be determined using conventional culture techniques that are known in the art as described above in relation to RTD-1, and can be used to determine sub-antifungal concentrations. Systemic or disseminated candidiasis can be modeled in vivo by, for example, challenging BALB/c female mice with 0.15 to 2 mL of C. albicans (reference strain or resistant strain) at from about 2×10^5 to about 2×10^7 CFU/mL of the organism. Animals can the be treated with candidate synthetic cyclic tetradecapeptide before challenge with the pathogen, at the time of pathogen challenge, or after challenge with the pathogen. Antifungal drugs and/or candidate synthetic cyclic tetradecapeptide can be administered by intravenous, subcutaneous, intramuscular, and/or intraperitoneal injection in such an in vivo model of systemic or disseminated candidiasis.
In activity studies the synthetic cyclic tetradecapeptide MTD1280 (SEQ ID NO. 6), which was identified initially as having significant antifungal activity, was used as a model peptide. Briefly, 7-8 week old, immunocompetent, female BALB/c mice were challenged i.v. at T=0 with 3×10^5 CFU of C. albicans SC5314. […] As shown, caspofungin (Caspo) is not effective against this strain of C. albicans.
Candidate synthetic cyclic tetradecapeptides were pre-screened for tolerance by determining a lack of toxicity when administered at >5 mg/kg.

[4] = system: susceptible and multiple drug resistant strains of C. albicans; settings: cited from earlier work
C. albicans [5] = experiment: In vitro antifungal activity, sub-antifungal concentration, C. albicans in general; format: cell-based, Candida albicans; settings: in the presence of serum
Text: Within the context of this application, a “sub-antifungal concentration” in regard to a fungal pathogen should be understood to be a concentration at which the compound so described has no antifungal effect when applied to the fungal pathogen in vitro (e.g. in a liquid culture medium), e.g. in the absence of host immune effectors.
Basso et al. (Basso et al., “Rhesus theta defensin 1 promotes long term survival in systemic candidiasis by host directed mechanisms” Nature Scientific Reports (2019) 9: 16905) provides an example of determination of sub-antifungal concentration for the native θ-defensin RTD-1 in regard to different strains of Candida albicans. Cultures of different strains of C. albicans were established in RPMI media or RPMI media containing 50% serum. […] MFC was determined as the lowest concentration that provided 99% killing relative to the input inoculum. MIC was determined as the lowest concentration that inhibited growth.
Based on such data, for C. albicans a sub-antifungal concentration of RTD-1 in the presence of serum would be less than 100 μg/mL. Such sub-antifungal concentrations can be determined experimentally (for example, by culture from a patient sample) or, preferably, from historical data. […]

[6] = RPMI, lowest concentration giving 99% killing
[7] = RPMI, lowest concentration that inhibited growth
[8] = 5 mg/kg i.p. daily for 7 d from 24 h p.i.
[9] = 5 mg/kg i.p. once a day for 7 days
[10] = long term survivors 30 days p.i., FIG. 14

Q: What does the source list for “RTD-1: naturally occurring rhesus θ-defensin, cyclic octadecapeptide with three disulfide bonds, SEQ ID NO. 1 (cyclo(GFCRCLCRRGVCRCICTR); disulfide (positions not given here); listed as Macaca mulatta)”?
A: in vitro antifungal activity in the presence of serum (C. albicans [1]; in vitro studies, serum): abolished by the presence of serum; in vitro concentration required relative to concentrations effective in vivo (C. albicans [1]; in vitro versus murine model): ≥ 50 fold; MFC (C. albicans SC5314 [2]; 50% serum): >100 µg/mL; MIC (C. albicans SC5314 [2]; 50% serum): >100 µg/mL; MFC (C. albicans SC5314 [2]; [6]): 25 µg/mL; MIC (C. albicans SC5314 [2]; [7]): 12.5 µg/mL; MFC (C. albicans strain 53264; 50% serum): >100 µg/mL; MIC (C. albicans strain 53264; 50% serum): >100 µg/mL; MFC (C. albicans strain 53264; RPMI): 12.5 µg/mL; MIC (C. albicans strain 53264; RPMI): 12.5 µg/mL; MFC (C. albicans strain 43001; 50% serum): >100 µg/mL; MIC (C. albicans strain 43001; 50% serum): >100 µg/mL; MFC (C. albicans strain 43001; RPMI): 12.5 µg/mL; MIC (C. albicans strain 43001; RPMI): 6.25 µg/mL; survival compared to saline controls, P (log-rank analysis) (C. albicans SC5314 [3]; [8]): 3.4×10^−6; survival efficacy, comparison in words (C. albicans SC5314 [3]; [9]): more effective than 5 mg/kg of fluconazole; long term production of pro-inflammatory cytokines ([4]; in vivo, treatment with RTD-1): reduction in long term production of pro-inflammatory cytokines; efficacy in animal models of systemic candidiasis ([4]; susceptible and multiple drug resistant strains): effective; sub-antifungal concentration (C. albicans [5]): less than 100 μg/mL

Q: With “MTD1280: model synthetic cyclic tetradecapeptide θ-defensin analog, SEQ ID NO. 6, used as reference peptide (GVCICRRRFCLCRR; cyclic; Synthetic cyclic peptide MTD1280)” as the compound, how does the survival benefit (C. albicans SC5314 [3]; 0.1 mg/kg i.p. once a day for 7 days, FIG. 9) read?
A: no survival benefit

Q: And the “survival compared to saline controls, P (log-rank analysis)” value (C. albicans SC5314 [3]; 0.25 mg/kg i.p. daily for 7 d from 24 h p.i.)?
A: 2.3×10^−7

Q: What about the “survival efficacy, comparison in words” value (C. albicans SC5314 [3]; 0.25 mg/kg i.p. once a day for 7 days) of the same compound?
A: more effective than 5 mg/kg of RTD-1; also recorded: more effective than 5 mg/kg of fluconazole

Q: And the “transient mean reduction in bodyweight” value (C. albicans SC5314 [3]; long term surviving treated candidemic mice, plateaued by day 10)?
A: 15%

Q: What about the “share of cohort that regained initial body weights” value (C. albicans SC5314 [3]; long term surviving treated mice; by day 3)) of the same compound?
A: 90%

Q: What about the “renal fungal burden reduced to a greater extent than fluconazole, P (Fisher's LSD test)” value (C. albicans SC5314 [3]; [10]) of the same compound?
A: 3×10^−3

Q: What does the source list for `CC[C@H](C)C[C@H](C)CCCCCCCCC(=O)N[C@H]1C[C@@H](O)[C@@H](NCCN)NC(=O)[C@@H]2[C@@H](O)CCN2C(=O)[C@H]([C@H](O)CCN)NC(=O)[C@H]([C@H](O)[C@@H](O)c2ccc(O)cc2)NC(=O)[C@@H]2C[C@@H](O)CN2C(=O)[C@H]([C@@H](C)O)NC1=O` [Caspofungin, caspofungin]?
A: MFC (C. albicans SC5314 [2]; [6]): >256 µg/mL; MIC (C. albicans SC5314 [2]; [7]): 0.06 µg/mL (≈ 0.0549 µM); MFC (C. albicans strain 53264; RPMI): >8 µg/mL; MIC (C. albicans strain 53264; RPMI): >8 µg/mL; MFC (C. albicans strain 43001; RPMI): 2 µg/mL (≈ 1.83 µM); MIC (C. albicans strain 43001; RPMI): 2 µg/mL (≈ 1.83 µM); survival compared to saline controls, P (log-rank analysis) (C. albicans SC5314 [3]; [8]): 3.4×10^−6; survival efficacy, comparison in words (C. albicans SC5314 [3]; [9]): not effective

Q: Which “survival efficacy relative to MTD1280” value (C. albicans SC5314 [3]) does the source give for “MTD12811: synthetic cyclic tetradecapeptide θ-defensin analog, SEQ ID NO. 3, two disulfide bonds (cyclo(GVCSCRRRFCICRR); disulfide (positions not given here))” here?
A: equivalent or superior to MTD1280

Q: What does the source list for “MTD12810: synthetic cyclic tetradecapeptide θ-defensin analog, SEQ ID NO. 2, two disulfide bonds (Cys3-Cys12, Cys5-Cys10) (cyclo(GVCSCRRRFCLCRR); disulfide 5-10, 3-12)”?
A: survival efficacy relative to MTD1280 (C. albicans SC5314 [3]): equivalent or superior to MTD1280; renal fungal burden reduced to a greater extent than fluconazole, P (Fisher's LSD test) (C. albicans SC5314 [3]; [10]): 3.5×10^−5; survival by end point analysis versus fluconazole (C. albicans SC5314 [3]; fluconazole 5 mg/kg): more effective than fluconazole

Q: With “MTD1288: synthetic cyclic tetradecapeptide θ-defensin analog, SEQ ID NO. 5, two disulfide bonds (cyclo(GLCICRRRACLCRR); disulfide (positions not given here))” as the compound, how does the “survival efficacy relative to MTD1280” value (C. albicans SC5314 [3]) read?
A: equivalent or superior to MTD1280

Q: And the “renal fungal burden reduced to a greater extent than fluconazole, P (Fisher's LSD test)” value (C. albicans SC5314 [3]; [10])?
A: 0.02

Q: What about the “survival by end point analysis versus fluconazole” value (C. albicans SC5314 [3]; fluconazole 5 mg/kg) of the same compound?
A: more effective than fluconazole

Q: For “MTD1283: synthetic cyclic tetradecapeptide θ-defensin analog, SEQ ID NO. 4, two disulfide bonds (cyclo(GVCICRRRVCICRR); disulfide (positions not given here))”, which “survival efficacy relative to MTD1280” value (C. albicans SC5314 [3]) is on record?
A: equivalent or superior to MTD1280

Q: And the “renal fungal burden reduced to a greater extent than fluconazole, P (Fisher's LSD test)” value (C. albicans SC5314 [3]; [10])?
A: 7.4×10^−3

Q: What about the “survival by end point analysis versus fluconazole” value (C. albicans SC5314 [3]; fluconazole 5 mg/kg) of the same compound?
A: more effective than fluconazole

Q: With `OC(Cn1cncn1)(Cn1cncn1)c1ccc(F)cc1F` [Fluconazole, fluconazole] as the compound, how does the MIC (C. albicans SC5314 [2]; [7]) read?
A: 64 µg/mL (≈ 209 µM)

Q: What about the “survival compared to saline controls, P (log-rank analysis)” value (C. albicans SC5314 [3]; [8]) of the same compound?
A: 3.4×10^−6

Q: And the “renal fungal burden in kidney homogenates” value (C. albicans SC5314 [3]; long term survivors 30 days p.i., peptide 0.1 or 0.25 mg/kg, fluconazole 5 mg/kg, FIG. 14)?
A: reduced fungal burden

From US12146005B2, “Compositions and methods for treatment of fungal infections” (THE UNIVERSITY OF SOUTHERN CALIFORNIA, priority 2019, dated 2024)
